Test results as given in patent US12162867B2, “Inhibitors of RNA helicase DHX9 and uses thereof” (ACCENT THERAPEUTICS, INC., priority 2022, dated 2024).
pEC50, pIC50: −log10 of the molar value. Where two headings read alike, the source gives them in different places.

Tests used:
Assay type in all cases: cell-based
[1] = test system: circBRIP1 in HCT116 cells; assay: DHX9 circBRIP1 cellular target engagement TaqMan Multiplex assay (qPCR); details: Homo sapiens, read-out: DHX9 Cellular Target Engagement EC50
NCI-H747 cells = assay: DHX9 cellular proliferation assay (CellTiter-Glo), NCI-H747 (CRC-MSS); details: Homo sapiens, performed at Pharmaron, read-out: H747 (CRC-MSS) Antiproliferative IC50
LS411N cells = assay: DHX9 cellular proliferation assay (CellTiter-Glo), LS411N (CRC-MSI); details: Homo sapiens, LS-411N, LS411N, performed at Pharmaron, read-out: LS411N (CRC-MSI-H) Antiproliferative IC50
[2] = HCT-116, circBRIP1, HCT116 cells, * Taqman assay was used
[3] = HCT-116, 72 h, circBRIP1, HCT116 cells, 72 hours, Taqman assay (marked *)

| SMILES | pEC50 [1, 2] | pIC50 (NCI-H747 cells; NCI-H747, NCI-H747) | pEC50 [1, 3] | pIC50 (NCI-H747 cells; NCI-H747, NCI-H747, CRC-MSS) | pIC50 (LS411N cells) | pIC50 (LS411N cells; CRC-MSI-H) |
| --- | --- | --- | --- | --- | --- | --- |
| Cc1sc(C(=O)Nc2cc(Cl)cc(NS(=O)(=O)CCO)c2)cc1-c1ncccc1OCc1cncc(F)c1 [Example 626] | 7.62 | < 5.00 |  |  | 6.86 |  |
| Cc1sc(C(=O)Nc2cc(Cl)cc(NS(C)(=O)=O)c2)cc1-c1ncc(C2CCN(CC(F)(F)F)CC2)cc1F [Example 618] | 7.34 | 5.73 |  |  | 6.88 |  |
| CNc1cnc(-c2cc(C(=O)Nc3cc(Cl)cc(NS(C)(=O)=O)c3)sc2C)nc1 [Example 616, N-(3-chloro-5-methanesulfonamidophenyl)-5-methyl-4-[5-(methylamino)pyrimidin-2-yl]thiophene-2-carboxamide] | 7.76 | < 5.00 |  |  | 6.46 |  |
| Cc1cc(C#N)cnc1-c1cc(C(=O)Nc2cc(Cl)cc(NS(C)(=O)=O)c2)sc1C [Example 376] |  |  | 7.16 | < 5.00 |  | 6.52 |
| Cn1cc(C(=O)Nc2cc(Cl)cc(NS(C)(=O)=O)c2)cc1-c1ncc(N2CC(C(F)(F)F)C2)cn1 [Example 493] | 7.66 | < 5.00 |  |  | 6.88 |  |
| CCOc1cnc(-c2cc(C(=O)Nc3cc(Cl)cc(NS(C)(=O)=O)c3)sc2C)c(F)c1 [Example 456] | 7.48 | 5.71 |  |  | 6.68 |  |
| Cc1sc(C(=O)Nc2cc(Cl)cc(NS(C)(=O)=O)c2)cc1-c1ncc(OC(C)(C)C)cc1F [Example 381] |  |  | 6.74 | 6.02 |  | 6.46 |
| Cc1cc(C(=O)Nc2cc(Cl)cc(NS(C)(=O)=O)c2)cn1-c1ncc(N2CC(F)(F)C2)cc1OCC(F)(F)F [Example 708] | 7.03 | 5.19 |  |  | 6.85 |  |
| CC(C)Oc1cnc(-c2csc(C(=O)Nc3cc(Cl)cc(NS(C)(=O)=O)c3)c2)nc1 [Example 457] | 7.07 | 5.32 |  |  | 7.12 |  |
| COC1CCN(c2ccc(-c3cc(C(=O)Nc4cc(Cl)cc(NS(C)(=O)=O)c4)cn3C)nc2)CC1 [Example 515, N-(3-chloro-5-methanesulfonamidophenyl)-5-[5-(4-methoxypiperidin-1-yl)pyridin-2-yl]-1-methyl-1H-pyrrole-3-carboxamide] | 7.67 | 5.06 |  |  | 7.05 |  |
| Cc1sc(C(=O)Nc2cc(Cl)cc(NS(C)(=O)=O)c2)cc1-c1ncc(N2CCC(F)(F)CC2)cc1F [Example 471] | 7.56 | 5.05 |  |  | 7.14 |  |
| Cn1cc(C(=O)Nc2cc(Cl)cc(NS(C)(=O)=O)c2)cc1-c1c(F)cc(F)cc1F [Example 547] | 6.90 | 5.27 |  |  | 6.76 |  |
| Cc1sc(C(=O)Nc2cc(Cl)cc(NS(C)(=O)=O)c2)cc1-c1ccc(N2CC(F)(F)C2)cn1 [Example 533] | 7.84 | 5.32 |  |  | 7.13 |  |
| Cn1cc(C(=O)Nc2cc(Cl)cc(NS(C)(=O)=O)c2)cc1-c1ccc(C2CCN(CC(F)(F)F)CC2)cn1 [Example 619] | 7.07 | 5.44 |  |  | 6.75 |  |
| Cc1sc(C(=O)Nc2cc(Cl)cc(NS(C)(=O)=O)c2)cc1-c1ncc(N(C)S(C)(=O)=O)cn1 [Example 720] | 7.26 | 5.10 |  |  | 6.34 |  |
| Cc1sc(C(=O)Nc2cc(Cl)cc(NS(C)(=O)=O)c2)cc1-c1ncc(N2CC(F)(F)C2)cc1OCC(F)(F)F [Example 707] | 7.60 | 5.27 |  |  | 7.16 |  |
| COc1ccc(-c2cc(C(=O)Nc3cc(Cl)cc(NS(C)(=O)=O)c3)sc2C)nc1 [Example 352] |  |  | 7.68 | 5.06 |  | 7.30 |
| COc1cnc(-c2cc(C(=O)Nc3cc(Cl)cc(NS(C)(=O)=O)c3)sc2C)c(F)c1 [Example 358] |  |  | 7.27 | 5.16 |  | 6.89 |
| Cc1sc(C(=O)Nc2cc(F)cc(NS(C)(=O)=O)c2)cc1-c1ncc(N2CC(C(F)(F)F)C2)cc1F [Example 501] | 7.03 | 5.14 |  |  | 6.56 |  |
| Cc1sc(C(=O)Nc2cc(Cl)cc(NS(C)(=O)=O)c2)cc1-c1ncc(N2CC(F)(F)C2)cc1OC(C)C [Example 534] | 7.06 | < 5.00 |  |  | 7.26 |  |
| Cn1cc(C(=O)Nc2cc(Cl)cc(NS(C)(=O)=O)c2)cc1-c1ncc(N2CCC(F)(F)CC2)cc1F [Example 469] | 7.08 | 5.42 |  |  | 6.28 |  |
| Cc1sc(C(=O)Nc2cc(Cl)cc(NS(C)(=O)=O)c2)cc1-c1ncc(OC2CN(C)C2)cc1F [Example 635] | 7.72 | < 5.00 |  |  | 7.10 |  |
| Cc1sc(C(=O)Nc2cc(Cl)cc(NS(C)(=O)=O)c2)cc1-c1ncc(OC2CCC2)cn1 [Example 452] | 7.19 | < 5.00 |  |  | 6.65 |  |
| Cn1cc(C(=O)Nc2cc(Cl)cc(NS(C)(=O)=O)c2)cc1-c1ncc(N2CCC3(C2)CC3(F)F)cn1 (stereo not drawn) [Example 494] | 7.37 | < 5.00 |  |  | 6.89 |  |
| CCS(=O)(=O)Nc1cc(Cl)cc(NC(=O)c2cc(-c3ncc(F)cc3OC)c(C)s2)c1 [Example 354] |  |  | 7.46 | 5.09 |  | 7.15 |
| Cc1sc(C(=O)Nc2cc(Cl)cc(NS(C)(=O)=O)c2)cc1-c1ncc(N2CC3C(C2)C3(C)C)cc1F (stereo not drawn) [Example 476] | 6.97 | 5.38 |  |  | 6.85 |  |
| COc1cc(N2CC(F)(F)C2)cnc1-c1cc(C(=O)Nc2cc(Cl)cc(NS(C)(=O)=O)c2)cn1C [Example 462] | 7.59 | < 5.00 |  |  | 6.59 |  |
| Cn1cc(C(=O)Nc2cc(Cl)cc(NS(C)(=O)=O)c2)cc1-c1ncc(N2CC3(C2)CC(F)(F)C3)cc1F [Example 702] | 7.50 | 5.09 |  |  | 6.65 |  |

Second part, led by results:

| pEC50 [1, 2] | pIC50 (NCI-H747 cells; NCI-H747, NCI-H747) | pEC50 [1, 3] | pIC50 (NCI-H747 cells; NCI-H747, NCI-H747, CRC-MSS) | SMILES | pIC50 (LS411N cells) | pIC50 (LS411N cells; CRC-MSI-H) |
| --- | --- | --- | --- | --- | --- | --- |
| 6.84 | < 5.00 |  |  | Cn1cc(C(=O)Nc2cc(Cl)cc(NS(C)(=O)=O)c2)cc1-c1ccc(N2CC(CS(C)(=O)=O)C2)cn1 [Example 695] | 5.53 |  |
|  |  | 7.54 | < 5.00 | COc1cc(F)cnc1-c1cc(C(=O)Nc2cc(Cl)cc(NS(C)(=O)=O)c2)sc1C [Example 351] |  | 7.09 |
| 7.29 | 5.10 |  |  | CCS(=O)(=O)Nc1cc(Cl)cc(NC(=O)c2cc(C)n(-c3ncc(N4CC(F)(F)C4)cn3)c2)c1 [Example 423] | 6.57 |  |
| 7.44 | 5.11 |  |  | Cc1sc(C(=O)Nc2cc(Cl)cc(NS(C)(=O)=O)c2)cc1-c1ncc(F)cc1C#CC(C)(C)O [Example 696] | 7.35 |  |
| 7.42 | 5.36 |  |  | Cn1cc(C(=O)Nc2cc(Cl)cc(NS(C)(=O)=O)c2)cc1-c1ncc(N2CC(F)(F)C2)cc1F [Example 599] | 6.83 |  |
| 6.98 | 5.44 |  |  | COc1cc(C(F)(F)F)cnc1-c1cc(C(=O)Nc2cc(Cl)cc(NS(C)(=O)=O)c2)sc1C [Example 550] | 6.45 |  |
| 7.66 | < 5.00 |  |  | CC(=O)N1CCC(c2cnc(-c3cc(C(=O)Nc4cc(Cl)cc(NS(C)(=O)=O)c4)sc3C)nc2)CC1 [Example 699] | 6.29 |  |
|  |  | 7.36 | 5.20 | COc1cnc(-c2cc(C(=O)Nc3cc(Cl)cc(NS(C)(=O)=O)c3)sc2C)c(C)c1 [Example 361] |  | 6.44 |
| 7.25 | 5.52 |  |  | CCS(=O)(=O)Nc1cc(Cl)cc(NC(=O)c2cc(-c3ncc(OC(C)C)cn3)c(C)s2)c1 [Example 565] | 7.24 |  |
| 7.42 | < 5.00 |  |  | Cn1cc(C(=O)Nc2cc(Cl)cc(NS(C)(=O)=O)c2)cc1-c1ncncc1OCc1cc(F)cc(F)c1 [Example 627] | 7.53 |  |
| 7.50 | 5.59 |  |  | Cc1sc(C(=O)Nc2cc(Cl)cc(NS(C)(=O)=O)c2)cc1-c1ncc(N2CCC(F)(F)C2)cc1F [Example 484] | 7.18 |  |
| 7.52 | 5.38 |  |  | Cc1sc(C(=O)Nc2cc(Cl)cc(NS(C)(=O)=O)c2)cc1-c1ncc(N2CC(F)(F)C2)cc1F [Example 532, N-(3-chloro-5-methanesulfonamidophenyl)-4-[5-(3,3-difluoroazetidin-1-yl)-3-fluoropyridin-2-yl]-5-methylthiophene-2-carboxamide] | 7.00 |  |
| 7.26 | 5.34 |  |  | Cn1cc(C(=O)Nc2cc(Cl)cc(NS(C)(=O)=O)c2)cc1-c1ncc(OC(C)(C)C)cn1 [Example 556] | 7.13 |  |
| 7.09 | 5.19 |  |  | CCS(=O)(=O)Nc1cc(Cl)cc(NC(=O)c2cc(-c3ncc(C)cc3F)n(C)c2)c1 [Example 548] | 6.65 |  |
| 6.83 | < 5.00 |  |  | CS(=O)(=O)Nc1cc(Cl)cc(NC(=O)c2c[nH]c(-c3ncc(F)cc3F)c2)c1 [Example 560] | 6.84 |  |
| 7.45 | < 5.00 |  |  | COC1CN(c2cnc(-n3cc(C(=O)Nc4cc(Cl)cc(NS(C)(=O)=O)c4)cc3C)nc2)C1 [Example 404] | 6.86 |  |
| 7.65 | 5.69 |  |  | Cc1sc(C(=O)Nc2cc(Cl)cc(NS(C)(=O)=O)c2)cc1-c1ncc(N2CC(C(F)(F)F)C2)cn1 [Example 489] | 7.29 |  |
| 6.88 | 5.12 |  |  | Cn1cc(C(=O)Nc2cc(Cl)cc(NS(C)(=O)=O)c2)cc1-c1ncc(OC2CN(CC(F)(F)F)C2)cc1F [Example 615] | 7.15 |  |
| 7.91 | 5.69 |  |  | Cc1sc(C(=O)Nc2cc(Cl)cc(NS(C)(=O)=O)c2)cc1-c1ccc(N2CCC(F)(F)C2)cn1 [Example 485] | 7.23 |  |
